Reference: US6180341A, “In vitro scanning saturation mutagenesis of proteins” (priority 1998, dated 2001)
Like-named read-outs stand apart in the source and are kept apart here.

Experiments:
[1] = tested on: anti-digoxin 26-10 scFv(Dig) variant LC94Y (L:Val-94→Tyr); type: binding, murine; settings: for kon: hapten-BSA conjugate immobilized on CM5 chip
Experimental: (§1) Single chain Fv mutants were produced and purified according to Burks (Burks and Iverson, 1995). The scFv genes from second round overlap extension PCR were ligated into pET25b plasmid and transformed into E. Coli BL21 (DE3) strain. Inclusion bodies that consist of scFvs were isolated from cell lysates and dissolved in 8 M urea. Soluble scFvs were purified by a metal chelating column (IMAC) and refolded by dialyzing against Tris buffer (50 mM Tris. HCl, pH 7.4, 500 mM KCl, 10% glycerol). Protein concentrations were determined by OD280 (Σ=44850) (Pace et al., 1995; Nieba et al., 1989). For the kinetics measurement, antibodies were further purified by a size exclusion gel filtration column Sepharose-75 (Pharmacia Biosensor AB, Sweden) to remove any dimeric or polymeric proteins.
(§2) The digoxin-BSA, digitoxin-BSA, digoxigenin-BSA and ouabain-BSA conjugates were immobilized on the surface of a sensor chip CM5 (approximately 400 RU) following the standard protocol from Pharmacia Biosensor. All kinetics experiments were performed in buffer containing 150 mM NaCl, 10 mM HEPES, 3.4 mM EDTA, and 0.005% P20, pH 7.4 at 25° C. with a flowrate of 60 μl/min (Myszka et al., 1997; Zeder-Lutz et al., 1997; Oddie et al., 1997). ScFv proteins over the concentration range of 25 nM to 400 nM were added to the chip for the association rate measurements. To prevent the rebinding of antibodies on the chip surface, soluble haptens (up to 1 mM) were added into elution buffer for the dissociation rate measurements (Schier et al., 1996). The antibody bound chip was regenerated by 50% ethylene glycol, pH 10. The values of association and dissociation rate of antibodies were calculated using BIAevaluation software from Pharmacia Biosensor. kon was determined from a plot of (ln(dR/dt))/t versus concentration (Karlson et al., 1991). koff was determined from a plot of ln(Ro/R) versus time.
(§3) In additional studies, values for the association and dissociation rate constants (kon and koff, respectively) were measured using a BIAcore 1000 for the wild-type and 14 selected mutant scFv antibodies. […] The selected scFv antibodies were expressed and purified following the procedure described by Burks and Iverson (1995). In each case, care was taken to insure that the kinetic values measured on the BlAcore are free of artifacts due to rebinding or avidity effects arising from multimeric scFvs.

[2] = tested on: anti-digoxin 26-10 scFv(Dig) variant HC100R (H:Trp-100→Arg); type: binding, murine; settings: for kon: hapten-BSA conjugate immobilized on CM5 chip
Experimental: as §1, §2, §3

[3] = tested on: anti-digoxin 26-10 scFv(Dig) variant LC96F (L:Pro-96→Phe); type: binding, murine
Experimental: as §1, §2, §3

[4] = tested on: anti-digoxin 26-10 scFv(Dig) variant HC50F (H:Tyr50→Phe); type: binding, murine; settings: for kon: hapten-BSA conjugate immobilized on CM5 chip
Experimental: as §1, §2, §3

[5] = tested on: anti-digoxin 26-10 scFv(Dig) variant HC100H (H:Trp-100→His); type: binding, murine; settings: for kon: hapten-BSA conjugate immobilized on CM5 chip
Experimental: as §1, §2, §3

[6] = tested on: anti-digoxin 26-10 scFv(Dig) variant HC9ST (heavy chain mutant); type: binding, murine; settings: for kon: hapten-BSA conjugate immobilized on CM5 chip
Experimental: as §1, §2, §3

[7] = tested on: anti-digoxin 26-10 scFv(Dig) variant LC94F (light chain residue 94→Phe); type: binding, murine; settings: for kon: hapten-BSA conjugate immobilized on CM5 chip
Experimental: as §1, §2, §3

[8] = tested on: anti-digoxin 26-10 scFv(Dig) variant HC100K (H:Trp-100→Lys); type: binding, murine; settings: for kon: hapten-BSA conjugate immobilized on CM5 chip
Experimental: as §1, §2, §3

[9] = tested on: anti-digoxin single chain Fv scFv(Dig) derived from anti-digoxin 26-10 murine monoclonal antibody, wild type (WT), SEQ ID NO:132; type: binding; settings: for kon: hapten-BSA conjugate immobilized on CM5 chip
Experimental: as §1, §2, §3

[10] = tested on: anti-digoxin 26-10 murine monoclonal antibody; settings: literature (Schildbach et al., 1993); cited from earlier work
[11] = SPR, hapten-BSA conjugate on chip, soluble hapten in elution buffer, pH 7.4, 25° C.
[12] = SPR, hapten-BSA conjugate on chip, pH 7.4, 25° C.

For `C[C@@H]1O[C@@H](O[C@H]2C[C@@H](O)[C@]3(CO)[C@H]4[C@H](O)C[C@]5(C)[C@@H](C6=CC(=O)OC6)CC[C@]5(O)[C@@H]4CC[C@]3(O)C2)[C@H](O)[C@H](O)[C@H]1O` [Ouabain, ouabain], the kon ([1]; SPR, pH 7.4, 25° C.) was 1e+06 M⁻¹ s⁻¹, the koff [1, 11] was 1.7 × 10^-2 and the kon ([2]; SPR, pH 7.4, 25° C.) was 1e+06 M⁻¹ s⁻¹. For the same molecule, the Ka [2, 12] was 8.3e+06 M⁻¹, the koff [2, 11] was 0.12 and the koff [3, 11] was 0.3. It also gave a kon ([4]; SPR, pH 7.4, 25° C.) of 1e+06 M⁻¹ s⁻¹, a Ka [4, 12] of 7.9e+07 M⁻¹ and a koff [4, 11] of 0.013. It also gave a kon ([5]; SPR, pH 7.4, 25° C.) of 1e+06 M⁻¹ s⁻¹, a Ka [5, 12] of 1.1e+07 M⁻¹ and a koff [5, 11] of 0.09. It also gave a kon ([6]; SPR, pH 7.4, 25° C.) of 100000 M⁻¹ s⁻¹, a Ka [6, 12] of 6.7e+06 M⁻¹ and a koff [6, 11] of 0.12. For the same molecule, the kon ([7]; SPR, pH 7.4, 25° C.) was 1e+06 M⁻¹ s⁻¹, the koff [7, 11] was 1.0 × 10^-2 and the koff [8, 11] was 0.60. The kon ([9]; SPR, pH 7.4, 25° C.) was 1e+06 M⁻¹ s⁻¹, the koff [9, 11] was 1.5 × 10^-2 and the “fold lower affinity than for digoxin, digitoxin and digoxigenin” value [10] was 42 fold.

With `C[C@H]1O[C@@H](O[C@H]2[C@@H](O)C[C@H](O[C@H]3[C@@H](O)C[C@H](O[C@H]4CC[C@@]5(C)[C@H](CC[C@@H]6[C@@H]5C[C@@H](O)[C@]5(C)[C@@H](C7=CC(=O)OC7)CC[C@]65O)C4)O[C@@H]3C)O[C@@H]2C)C[C@H](O)[C@@H]1O` [Digoxin, digoxin] the kon ([1]; SPR, pH 7.4, 25° C.) was 1.2e+06 M⁻¹ s⁻¹, the koff ([1]; pH 7.4) was 5.2 × 10^-3 and the kon ([2]; SPR, pH 7.4, 25° C.) was 1.3e+06 M⁻¹ s⁻¹. For the same molecule, the koff ([2]; pH 7.4) was 5.0 × 10^-3, the kon ([3]; SPR, hapten-BSA conjugate immobilized on CM5 chip, pH 7.4, 25° C.) was 1e+08 M⁻¹ s⁻¹ and the Ka [3, 12] was 500000 M⁻¹. The koff ([3]; pH 7.4) was 2, the kon ([4]; SPR, pH 7.4, 25° C.) was 1.5e+06 M⁻¹ s⁻¹ and the koff ([4]; pH 7.4) was 5.8 × 10^-4. For the same molecule, the kon ([5]; SPR, pH 7.4, 25° C.) was 1e+06 M⁻¹ s⁻¹, the koff ([5]; pH 7.4) was 2.0 × 10^-3 and the kon ([6]; SPR, pH 7.4, 25° C.) was 1.4e+06 M⁻¹ s⁻¹. The koff ([6]; pH 7.4) was 5.4 × 10^-3, the kon ([7]; SPR, pH 7.4, 25° C.) was 1.2e+06 M⁻¹ s⁻¹ and the koff ([7]; pH 7.4) was 1.9 × 10^-3. For the same molecule, the kon ([8]; SPR, pH 7.4, 25° C.) was 940000 M⁻¹ s⁻¹, the koff ([8]; pH 7.4) was 8.0 × 10^-2 and the kon ([9]; SPR, pH 7.4, 25° C.) was 1.2e+08 M⁻¹ s⁻¹. The koff ([9]; pH 7.4) was 7.0 × 10^-4 and the Ka [10] was “approximately 9×10^9 M^-1”.

In the case of `C[C@]12CC[C@H](O)C[C@H]1CC[C@@H]1[C@@H]2CC[C@]2(C)[C@@H](C3=CC(=O)OC3)CC[C@]12O` [Digitoxigenin], the kon ([1]; SPR, pH 7.4, 25° C.) is reported as 1.1e+06 M⁻¹ s⁻¹, the koff [1, 11] is reported as 1.8 × 10^-1 and the Ka [2, 12] is reported as 4.2e+07 M⁻¹. The koff [2, 11] was 1.7 × 10^-1, the koff [3, 11] was 0.169 and the kon ([4]; SPR, pH 7.4, 25° C.) was 1e+06 M⁻¹ s⁻¹. The Ka [4, 12] was 4.5e+08 M⁻¹, the koff [4, 11] was 2.2 × 10^-2 and the kon ([5]; SPR, pH 7.4, 25° C.) was 1e+06 M⁻¹ s⁻¹. For the same molecule, the Ka [5, 12] was 1e+08 M⁻¹, the koff [5, 11] was 9.7 × 10^-2 and the Ka [6, 12] was 7e+08 M⁻¹. For the same molecule, the koff [6, 11] was 1.00, the kon ([7]; SPR, pH 7.4, 25° C.) was 1e+06 M⁻¹ s⁻¹ and the koff [7, 11] was 8.9 × 10^-2. The kon ([8]; SPR, pH 7.4, 25° C.) was 1e+06 M⁻¹ s⁻¹, the koff [8, 11] was 1.48 and the kon ([9]; SPR, pH 7.4, 25° C.) was 1e+06 M⁻¹ s⁻¹. For the same molecule, the koff [9, 11] was 2.3 × 10^-2.

In the case of `C[C@H]1O[C@@H](O[C@H]2[C@@H](O)C[C@H](O[C@H]3[C@@H](O)C[C@H](O[C@H]4CC[C@@]5(C)[C@H](CC[C@@H]6[C@@H]5CC[C@]5(C)[C@@H](C7=CC(=O)OC7)CC[C@]65O)C4)O[C@@H]3C)O[C@@H]2C)C[C@H](O)[C@@H]1O` [Digitoxin, digitoxin], the kon ([1]; SPR, pH 7.4, 25° C.) is reported as 1.15e+06 M⁻¹ s⁻¹, the koff [1, 11] is reported as 2.7 × 10^-3 and the kon ([2]; SPR, pH 7.4, 25° C.) is reported as 930000 M⁻¹ s⁻¹. For the same molecule, the koff [2, 11] was 8.2 × 10^-3, the Ka [3, 12] was 8.4e+07 M⁻¹ and the koff [3, 11] was 0.014. The kon ([4]; SPR, pH 7.4, 25° C.) was 960000 M⁻¹ s⁻¹, the koff [4, 11] was 1.7 × 10^-3 and the Ka [5, 12] was 0 M⁻¹. The koff [5, 11] was 9.7 × 10^-3, the kon ([6]; SPR, pH 7.4, 25° C.) was 1e+06 M⁻¹ s⁻¹ and the Ka [6, 12] was 9e+06 M⁻¹. For the same molecule, the koff [6, 11] was 0.11, the kon ([7]; SPR, pH 7.4, 25° C.) was 1.3e+06 M⁻¹ s⁻¹ and the koff [7, 11] was 1.3 × 10^-3. It also gave a Ka [8, 12] of 0 M⁻¹, a koff [8, 11] of 0.09 and a kon ([9]; SPR, pH 7.4, 25° C.) of 1e+06 M⁻¹ s⁻¹. For the same molecule, the koff [9, 11] was 1.3 × 10^-3 and the Ka [10] was “approximately 9×10^9 M^-1”.

For `C[C@]12CC[C@H](O)C[C@H]1CC[C@@H]1[C@@H]2C[C@@H](O)[C@]2(C)[C@@H](C3=CC(=O)OC3)CC[C@]12O` [digoxigenin], the Ka [10] is given as “approximately 9×10^9 M^-1”.
